Measurements published in US10238677B2, “Treatment of filarial diseases” (AbbVie Inc., priority 2015, dated 2019).
“And” between values parts separate entries of the source, which are not always exact repeats. Equal entries are not always repeated.

Experiments:
[1] = tested on: Wolbachia in Litomosoides sigmodontis larvae; assay: Larval Litomosoides sigmodontis mouse model, Wolbachia ftsZ qPCR; format: in vivo, BALB/c mice; conditions: vs vehicle control
Procedure: In this mouse model of filariasis (Hoerauf A, et al. (1999) Journal of Clinical Investigation 103(1):11-18), BALB/c mice (6-8 week old) were infected via natural larvae transmission, through the bite of infected tropical mites (Ornithonyssus bacoti), and treatment started on the day following infection. Anti-Wolbachia efficacy was measured by quantitative PCR analysis, using genomic DNA extracted from larvae, of the Wolbachia ftsZ gene, and expressed as a reduction in Wolbachia load in comparison to the vehicle control group. […] Thus, tylosin A effectively cleared Wolbachia from filarial larvae (Litomosoides sigmodontis) in a mouse model of filariasis when delivered parenterally (intraperitoneally), to a similar extent to doxycycline, with a shorter dosing regimen.

[2] = tested on: Wolbachia pipientis (Wolbachia strain wAlbB) in C6/36 Aedes albopictus cell line; assay: In vitro anti-Wolbachia cell-based screening assay; conditions: Table 1A, anti-Wolbachia activity, 7 days incubation
Procedure: A C6/36 Aedes albopictus cell line infected with Wolbachia pipientis (Wolbachia strain wAlbB) derived from Aa23 A. albopictus cell line (O'Neill et al., 1997; Insect Mol Biol; Turner et al., (2006) J. Immunol. 7:1240-1249) was used to screen compounds. Cells were cultured in Leibovitz's L15 +L-glutamine supplemented with heat-inactivated Foetal Calf Serum (HI-FCS), non-essential amino acids and tryptose phosphate broth. Culture medium was filter-sterilized through a 0.2 μm filter and stored at 4° C. Compounds were provided as 10 mM stocks in DMSO, diluted to 50 μM working stock to give final concentration of 5 μM on the test plate. Concentrated stocks were frozen at −20° C.
Prior to use in the screening assay, cell cultures were sub-passaged (6 days prior) to provide ˜90% confluent cells on Day 0 of screening assay. On Day 0 (assay set-up), the medium was removed from the stock culture flask and replaced with fresh medium. The cells were detached by scraping and cell density was calculated using an automated cell counter. The cells were then diluted at working density and aliquoted at 90 μl to each well of a Cell Carrier 384 well plate (Perkin Elmer). Cell plates were incubated at 26° C.
Control solution (DMSO-medium) was dispensed at 10 μl per well for “untreated” wells. Test solution (Drug-DMSO) was also dispensed at 10 μl (from working plate) per well for “treated” wells. The plates were incubated at 26° C., inside plastic wallet in incubator, for 7 days.
On Day 7, 25 μl of staining medium/dye (SYTO 11, Life Technologies) was added to each sample well and allowed to stain for 15 minutes in the dark. All the medium was removed from each sample well without disturbing the cells and replaced with 100 μl of fresh medium. Plates were imaged on the Operetta High Content Imaging system (Perkin Elmer) and analyzed using texture analysis through Harmony software (Perkin Elmer). The cell-based screen and analysis are described in detail in Clare et al. (2014) J Biomol Screen.

[3] = tested on: Wolbachia in adult Brugia malayi; assay: Adult Brugia malayi mouse model, Wolbachia wsp qPCR; format: in vivo, BALB/c CCR3−/− mice
From the text: In an adult Brugia malayi mouse model treatment groups (BALB/c CCR3−/−mice, 6-8 week old) received compounds by oral delivery for 7-28 days beginning at 6-10 weeks post-infection intraperitoneal with Brugia malayi third-stage larvae. Following treatment, at 12 weeks post-infection, adult worms and released microfilariae were recovered from the peritoneal cavity, counted and staged for sex. Genomic DNA was extracted from individual adult worms (10/group) and quantification of the Wolbachia surface protein (wBm-wsp) performed by quantitative PCR.
Treatment dose (mg/kg/day) shown in parentheses and duration stated in days (d). MIN (minocycline), bid (twice daily), qd (once daily). Data in Table 4 are expressed as a reduction in Wolbachia load in comparison to the vehicle control group.
Treatment dose (mg/kg/day) shown in parentheses and duration stated in days (d). MIN (minocycline), bid (twice daily), qd (once daily).

[4] = tested on: Wolbachia in Brugia malayi larvae; assay: Larval Brugia malayi mouse model, Wolbachia wsp qPCR; format: in vivo, BALB/c IL4Rα−/− mice; conditions: vs median vehicle control
From the text: […] At 14 days post-infection, larvae were recovered from the peritoneal cavity, counted, and length measured. Genomic DNA was extracted from individual worms (10/group) and quantification of the Wolbachia surface protein (wBm-wsp) gene copy numbers performed by quantitative PCR.
Treatment dose (mg/kg) shown in parentheses and duration stated in days (d). Abbreviations: DOX (doxycycline), bid (twice daily), qd (once daily), PO (oral), […]. Data in Table 2 are expressed as a reduction in Wolbachia load in comparison to the vehicle control group.
[…] […] Treatment dose (mg/kg) shown in parentheses and duration stated in days (d). Abbreviations: DOX (doxycycline), qd (once daily).

[5] = tested on: Wolbachia in adult male Onchocerca ochengi; assay: Adult Onchocerca ochengi mouse model, Wolbachia:gst qPCR; format: in vivo, CB.17 SCID (BALB/c congenic) mice; conditions: Table 8; 25 mg/kg bid oral 28 d; vs median vehicle control
Procedure: In this model, adult male Onchocerca ochengi (closest relative species to the human parasite causing river blindness, Onchocerca volvulus) are derived from cattle natural hosts and surgically implanted into the peritoneal cavity of CB.17 SCID (BALB/c congenic) mice under anaesthesia (Halliday et al Parasit. Vectors 2014 7:472). After 3 days following surgery, mice were treated by oral gavage for periods up to 4 weeks. Mice were necropsied for worm recoveries 6 weeks after start of treatment. Genomic DNA was extracted from individual worms (n=10/group) and quantification of the Wolbachia surface protein (wBm-wsp) and Onchocerca glutathione S-transferase (Ov-gst) gene copy numbers performed by quantitative PCR. Data is expressed as a reduction in Wolbachia:gst ratios in comparison to the vehicle control group.
Treatment dose (mg/kg/day) shown in parentheses and duration stated in days (d). DOX (doxycycline), qd (once daily) bid (twice daily).

[6] = tested on: Wolbachia in adult Brugia malayi; assay: Adult Brugia malayi jird model, Wolbachia load; format: in vivo, Mongolian jirds (Meriones unguiculatus); conditions: Table 6; 200 mg/kg qd oral 21 d; vs median vehicle control
Procedure: (§1) In this model of adult filarial (macrofilariae) infection, Mongolian jirds (Meriones unguiculatus) were infected intraperitoneally with Brugia malayi third-stage larvae (Ash and Riley, (1970) J Parasitol. 56(5):969-73). Infected jirds were treated at +12-20 weeks post-infection for periods up to 6 weeks. Jirds were necropsied for worm recoveries. Adult worms were staged for sex and motile released microfilariae were counted. Genomic DNA was extracted from individual worms (10/group) and quantification of the Wolbachia surface protein (wBm-wsp) and Brugia malayi glutathione S-transferase (Bm-gst) gene copy numbers performed by quantitative PCR, and expressed as a reduction in Wolbachia load in comparison to the vehicle control group.
(§2) Treatment dose (mg/kg/day) shown in parentheses and duration stated in days (d). DOX (doxycycline), qd (once daily).

[7] = tested on: Brugia malayi microfilariae; assay: Adult Brugia malayi jird model, motile peritoneal microfilariae load; format: in vivo, Mongolian jirds (Meriones unguiculatus); conditions: Table 7, 200 mg/kg qd oral 21 d
Procedure: as §1, §2

[8] = tested on: Loa loa microfilariae; assay: Loa loa microfilariae ex vivo counter-screen; format: cell-based; conditions: for Motility (mean % vs baseline) / Survival (%): 64 μg/ml
From the text: This ex vivo assay is used to assess direct Loa loa microfilaricidal effects of drug compounds. Bloodborne Loa loa microfilariae are generated from experimental infections of splenectomised baboons with the human stain of L. loa (Orihel et al, Trop Med Parasitol, 1985. 36: p.215). L. loa microfilariae were purified from venous blood samples by Percoll gradient centrifugation. Loa loa microfilariae were adjusted to a density of 0.5×10^4/ml and plated into 96-well plates in Dulbecco's Modified Eagle Medium (DMEM) containing 10% Foetal Calf Serum (FCS). Triplicate wells of Loa loa microfilariae were exposed to either ivermectin (64 μg/ml: positive control), compound 10 (0.018 and 0.18 μg/ml), compound 19 (0.11 and 1.11 μg/ml) or 0.1% DMSO vehicle control. Dose levels of compound 10 and compound 19 were matched to predictive Cmax and 10× Cmax human plasma concentrations based on PK-PD modeling. L. loa were cultured at 37° C./5% CO2 for +7 days and monitored daily with a semi-quantitative score applied to individual mf motility.

[9] = Table 2, 50 mg/kg qd PO 14 d, 50 mg/kg

With `CC[C@H]1OC(=O)C[C@@H](O)[C@H](C)[C@@H](O[C@@H]2O[C@H](C)[C@@H](O[C@H]3C[C@@](C)(O)[C@@H](O)[C@H](C)O3)[C@H](N(C)C)[C@H]2O)[C@@H](CC=O)C[C@@H](C)C(=O)/C=C/C(C)=C/[C@@H]1CO[C@@H]1O[C@H](C)[C@@H](O)[C@@H](OC)[C@H]1OC` [Tylosin A, 2-((4R,5S,6S,7R,9R,11E,13E,15R,16R)-6-(((2R,3R,4R,5S,6R)-5-(((2S,4R,5S,6S)-4,5-dihydroxy-4,6-dimethyltetrahydro-2H-pyran-2-yl)oxy)-4-(dimethylamino)-3-hydroxy-6-methyltetrahydro-2H-pyran-2-yl)oxy)-16-ethyl-4-hydroxy-15-((((2R,3R,4R,5R,6R)-5-hydroxy-3,4-dimethoxy-6-methyltetrahydro-2H-pyran-2-yl)oxy)methyl)-5,9,13-trimethyl-2,10-dioxooxacyclohexadeca-11,13-dien-7-yl)acetaldehyde] the Wolbachia reduction ([1]; 7 days treatment, oral dosing) was 21.9%, the Wolbachia reduction ([1]; 7 days treatment, parenteral (intraperitoneal) dosing) was 91.7% and the EC50 ([2]; C6/36, 168 h) was 0.036 µM. The EC50 [2] was 0.024 µM and 0.026 µM, the “% Wolbachia reduction” value ([3]; Table 4, 50 mg/kg qd oral 14 d, vs median vehicle control) was 0% and the “% Wolbachia reduction” value ([4]; Table 2, 50 mg/kg qd IP 14 d, 50 mg/kg) was 99.9%. The “% Wolbachia reduction” value ([4]; Table 2, 50 mg/kg qd IP 14 d, listed as TYL A, 50 mg/kg) was 99.9%, the “% Wolbachia reduction” value [4, 9] was 50.4% and the “% Wolbachia reduction” value ([4]; Table 2, 50 mg/kg qd PO 14 d, listed as TYL A, 50 mg/kg) was 50.4%.
With `CN(C)c1ccc(O)c2c1C[C@H]1C[C@H]3[C@H](N(C)C)C(O)=C(C(N)=O)C(=O)[C@@]3(O)C(O)=C1C2=O` [minocycline] the “% Wolbachia reduction” value [5] was 99.7%, the “% Wolbachia reduction” value ([3]; Table 4, 25 mg/kg bid oral 28 d, vs median vehicle control, 25 mg/kg) was 83.8% and the “% Wolbachia reduction” value ([3]; Table 4, 25 mg/kg bid oral 28 d, vs median vehicle control, listed as MIN, 25 mg/kg) was 83.8%. The “% Wolbachia reduction” value ([3]; Table 5 dose escalation study, 25 mg/kg bid oral 28 d) was 95.5%.
`C[C@H]1c2cccc(O)c2C(=O)C2=C(O)[C@]3(O)C(=O)C(C(N)=O)=C(O)[C@@H](N(C)C)[C@@H]3[C@@H](O)[C@@H]21` [doxycycline] was tested, and the Wolbachia reduction ([1]; 50 mg/kg/day for 14 days) was 99.9%, the “% Wolbachia reduction” value [6] was 99.1% and the “% reduction in microfilariae” value [7] was 90.5%. For the same compound, the “% Wolbachia reduction” value [5] was 99.8%, the “% Wolbachia reduction” value ([4]; Table 2, 50 mg/kg qd PO 7 d) was 88.7% and the “% Wolbachia reduction” value [4, 9] was 98.3%. The “% Wolbachia reduction” value ([4]; Table 2, 50 mg/kg qd PO 14 d, listed as DOX, 50 mg/kg) was 98.3%, the “% Wolbachia reduction” value ([4]; Table 3, 50 mg/kg qd oral 7 d, 50 mg/kg) was 77.4% and the “% Wolbachia reduction” value ([4]; Table 3, 50 mg/kg qd oral 7 d, listed as DOX, 50 mg/kg) was 77.4%. The “% Wolbachia reduction” value ([4]; Table 3, 50 mg/kg qd oral 14 d, 50 mg/kg) was 99.3% and the “% Wolbachia reduction” value ([4]; Table 3, 50 mg/kg qd oral 14 d, listed as DOX, 50 mg/kg) was 99.3%.
`CC[C@H]1OC(=O)C[C@@H](O)[C@H](C)[C@@H](O[C@@H]2O[C@H](C)[C@@H](O)[C@H](N(C)C)[C@H]2O)[C@@H](CC=O)C[C@@H](C)C(=O)/C=C/C(C)=C/[C@@H]1CO[C@@H]1O[C@H](C)[C@@H](O)[C@@H](OC)[C@H]1OC` [Tylosin B, desmycosin] gave an EC50 [2] of 0.088 µM.
With ivermectin the “Motility (mean % vs baseline)” value ([8]; exposure time 2 days) was 5.71%, the “Survival (%)” value ([8]; exposure time 2 days) was 100% and the “Motility (mean % vs baseline)” value ([8]; exposure time 7 days) was 0%. For the same compound, the “Survival (%)” value ([8]; exposure time 7 days) was 0%, the “Effect on Loa loa microfilariae motility (in words)” value ([8]; ex vivo culture, period of 7 days) was “completely immotile” and the Reduction in motility ([8]; in +2 days) was greater than 90%.
